Reference: the NIST ThermoML archive (doi:10.1016/j.fluid.2007.06.001)

How the values were obtained:
[1] = excess molar enthalpy (molar enthalpy of mixing); xn = mol fraction of the nth substance listed; conditions: Liquid
[2] = Liquid

CCCC[n+]1ccn(C)c1.O=S(=O)([N-]S(=O)(=O)C(F)(F)F)C(F)(F)F + CC1CCCCC1
[1], 363.15 K, 101.3 kPa
Conditions | excess molar enthalpy [kJ/mol]
x2 = 0.1067 | 0.464
x2 = 0.2014 | 0.62
x2 = 0.2449 | 0.6
x2 = 0.286 | 0.574
x2 = 0.3621 | 0.516
x2 = 0.4308 | 0.463
x2 = 0.4932 | 0.414
x2 = 0.6022 | 0.323
x2 = 0.6942 | 0.245
x2 = 0.773 | 0.184
x2 = 0.872 | 0.108

CCCCCC[n+]1ccn(C)c1.O=S(=O)([N-]S(=O)(=O)C(F)(F)F)C(F)(F)F + CC(C)=O
[1], 353.15 K, 101 kPa
Conditions | excess molar enthalpy [kJ/mol]
x2 = 0.02 | -0.0448
x2 = 0.0499 | -0.106
x2 = 0.0999 | -0.214
x2 = 0.1498 | -0.333
x2 = 0.1998 | -0.444
x2 = 0.2997 | -0.661
x2 = 0.3996 | -0.846
x2 = 0.4996 | -0.999
x2 = 0.5996 | -1.09
x2 = 0.6997 | -1.12
x2 = 0.7998 | -1.04
x2 = 0.8999 | -0.76
x2 = 0.9499 | -0.489

CCCC[n+]1ccn(C)c1.O=S(=O)([N-]S(=O)(=O)C(F)(F)F)C(F)(F)F + CC(C)=O
[1], 353.15 K, 101 kPa
Conditions | excess molar enthalpy [kJ/mol]
x2 = 0.05 | -0.13
x2 = 0.0999 | -0.255
x2 = 0.1499 | -0.385
x2 = 0.1999 | -0.512
x2 = 0.2998 | -0.73
x2 = 0.4498 | -1.04
x2 = 0.5998 | -1.22
x2 = 0.6998 | -1.24
x2 = 0.7999 | -1.11
x2 = 0.8499 | -0.985
x2 = 0.8999 | -0.778
x2 = 0.95 | -0.492

CCCCCC[n+]1ccn(C)c1.O=S(=O)([N-]S(=O)(=O)C(F)(F)F)C(F)(F)F + CCC(C)=O
[1], 353.15 K, 101 kPa
Conditions | excess molar enthalpy [kJ/mol]
x2 = 0.02 | -0.0524
x2 = 0.05 | -0.124
x2 = 0.1 | -0.242
x2 = 0.15 | -0.378
x2 = 0.2001 | -0.502
x2 = 0.3001 | -0.713
x2 = 0.4001 | -0.9
x2 = 0.5001 | -1.05
x2 = 0.6001 | -1.15
x2 = 0.7001 | -1.17
x2 = 0.8001 | -1.07
x2 = 0.9 | -0.758
x2 = 0.95 | -0.478

CCCC[n+]1ccn(C)c1.O=S(=O)([N-]S(=O)(=O)C(F)(F)F)C(F)(F)F + CCC(C)=O
[1], 353.15 K, 101 kPa
Conditions | excess molar enthalpy [kJ/mol]
x2 = 0.0508 | -0.122
x2 = 0.1015 | -0.247
x2 = 0.1521 | -0.379
x2 = 0.2026 | -0.492
x2 = 0.3035 | -0.721
x2 = 0.4541 | -1
x2 = 0.6039 | -1.18
x2 = 0.7034 | -1.21
x2 = 0.8026 | -1.08
x2 = 0.8521 | -0.959
x2 = 0.9015 | -0.759
x2 = 0.9508 | -0.471

CCCCCC[n+]1ccn(C)c1.O=S(=O)([N-]S(=O)(=O)C(F)(F)F)C(F)(F)F + CCCCCC
[1], 363.15 K, 101 kPa
Conditions | excess molar enthalpy [kJ/mol]
x2 = 0.02 | 0.0519
x2 = 0.0501 | 0.146
x2 = 0.1002 | 0.305
x2 = 0.1503 | 0.434
x2 = 0.2003 | 0.517
x2 = 0.3003 | 0.527
x2 = 0.4004 | 0.447
x2 = 0.5004 | 0.367
x2 = 0.6004 | 0.297
x2 = 0.7003 | 0.214
x2 = 0.8002 | 0.137
x2 = 0.9001 | 0.0657
x2 = 0.9501 | 0.0335

CCCC[n+]1ccn(C)c1.O=S(=O)([N-]S(=O)(=O)C(F)(F)F)C(F)(F)F + CCCCCC
[1], 363.15 K, 101.3 kPa
Conditions | excess molar enthalpy [kJ/mol]
x2 = 0.02 | 0.0559
x2 = 0.0501 | 0.148
x2 = 0.1002 | 0.288
x2 = 0.1503 | 0.397
x2 = 0.2003 | 0.455
x2 = 0.3004 | 0.394
x2 = 0.5004 | 0.277
x2 = 0.7004 | 0.159
x2 = 0.9002 | 0.0487

CCn1cc[n+](C)c1.O=S(=O)([N-]S(=O)(=O)C(F)(F)F)C(F)(F)F + CCCCCC
[1], 353.15 K, 101.3 kPa
Conditions | excess molar enthalpy [kJ/mol]
x2 = 0.0239 | 0.124
x2 = 0.0472 | 0.224
x2 = 0.07 | 0.276
x2 = 0.0923 | 0.329
x2 = 0.1354 | 0.316
x2 = 0.2162 | 0.288
x2 = 0.3916 | 0.218
x2 = 0.6588 | 0.121
x2 = 0.8528 | 0.0522

CCn1cc[n+](C)c1.O=S(=O)([N-]S(=O)(=O)C(F)(F)F)C(F)(F)F + CCCO
[1], 323.15 K, 101.3 kPa
Conditions | excess molar enthalpy [kJ/mol]
x2 = 0.0418 | 0.321
x2 = 0.0812 | 0.626
x2 = 0.1536 | 1.13
x2 = 0.277 | 1.89
x2 = 0.4629 | 2.62
x2 = 0.6741 | 2.61
x2 = 0.8082 | 2.04
x2 = 0.9602 | 0.632

CCCCCC[n+]1ccn(C)c1.O=S(=O)([N-]S(=O)(=O)C(F)(F)F)C(F)(F)F + CCO
[1], 353.15 K, 101 kPa
Conditions | excess molar enthalpy [kJ/mol]
x2 = 0.0506 | 0.271
x2 = 0.1012 | 0.551
x2 = 0.1517 | 0.846
x2 = 0.2022 | 1.13
x2 = 0.4534 | 2.13
x2 = 0.6033 | 2.31
x2 = 0.9012 | 1.07
x2 = 0.9506 | 0.578

CCn1cc[n+](C)c1.O=S(=O)([N-]S(=O)(=O)C(F)(F)F)C(F)(F)F + CCO
[1], 323.15 K, 101.3 kPa
Conditions | excess molar enthalpy [kJ/mol]
x2 = 0.0529 | 0.38
x2 = 0.1017 | 0.684
x2 = 0.1885 | 1.24
x2 = 0.3291 | 1.94
x2 = 0.5246 | 2.45
x2 = 0.7259 | 2.2
x2 = 0.8436 | 1.61
x2 = 0.9687 | 0.439

CCCCCC[n+]1ccn(C)c1.O=S(=O)([N-]S(=O)(=O)C(F)(F)F)C(F)(F)F + Cc1ccccc1
[1], 363.15 K, 101 kPa
Conditions | excess molar enthalpy [kJ/mol]
x2 = 0.0501 | -0.0914
x2 = 0.1001 | -0.184
x2 = 0.1501 | -0.27
x2 = 0.2002 | -0.362
x2 = 0.3002 | -0.523
x2 = 0.4503 | -0.707
x2 = 0.6003 | -0.765
x2 = 0.7002 | -0.685
x2 = 0.8002 | -0.487
x2 = 0.8501 | -0.363
x2 = 0.9001 | -0.239
x2 = 0.9501 | -0.12

CCCC[n+]1ccn(C)c1.O=S(=O)([N-]S(=O)(=O)C(F)(F)F)C(F)(F)F + Cc1ccccc1
[1], 363.15 K, 101 kPa
Conditions | excess molar enthalpy [kJ/mol]
x2 = 0.0653 | -0.0961
x2 = 0.1255 | -0.182
x2 = 0.1811 | -0.261
x2 = 0.2325 | -0.323
x2 = 0.2803 | -0.38
x2 = 0.3249 | -0.422
x2 = 0.4054 | -0.508
x2 = 0.4761 | -0.556
x2 = 0.5389 | -0.58
x2 = 0.6451 | -0.565
x2 = 0.7317 | -0.452
x2 = 0.8035 | -0.345
x2 = 0.8911 | -0.187
x2 = 0.9608 | -0.0716

CCCCCC[n+]1ccn(C)c1.O=S(=O)([N-]S(=O)(=O)C(F)(F)F)C(F)(F)F + c1ccccc1
[1], 363.15 K, 101 kPa
Conditions | excess molar enthalpy [kJ/mol]
x2 = 0.0854 | -0.158
x2 = 0.1608 | -0.292
x2 = 0.2279 | -0.415
x2 = 0.288 | -0.503
x2 = 0.3421 | -0.593
x2 = 0.3912 | -0.681
x2 = 0.4765 | -0.798
x2 = 0.5482 | -0.879
x2 = 0.6094 | -0.897
x2 = 0.7082 | -0.862
x2 = 0.7845 | -0.765
x2 = 0.8452 | -0.576
x2 = 0.9161 | -0.286
x2 = 0.9704 | -0.0887

CCCC[n+]1ccn(C)c1.O=S(=O)([N-]S(=O)(=O)C(F)(F)F)C(F)(F)F + c1ccccc1
[1], 101.3 kPa
Conditions | excess molar enthalpy [kJ/mol]
363.15 K, x2 = 0.0498 | -0.0982
363.15 K, x2 = 0.0997 | -0.189
363.15 K, x2 = 0.1495 | -0.284
363.15 K, x2 = 0.1994 | -0.366
363.15 K, x2 = 0.2992 | -0.529
363.15 K, x2 = 0.4491 | -0.736
363.15 K, x2 = 0.5991 | -0.864
363.15 K, x2 = 0.6992 | -0.83
363.15 K, x2 = 0.7994 | -0.613
363.15 K, x2 = 0.8495 | -0.47
363.15 K, x2 = 0.8997 | -0.299
363.15 K, x2 = 0.9498 | -0.148
413.15 K, x2 = 0.1462 | -0.288
413.15 K, x2 = 0.2087 | -0.399
413.15 K, x2 = 0.2654 | -0.5
413.15 K, x2 = 0.3172 | -0.594
413.15 K, x2 = 0.3647 | -0.696
413.15 K, x2 = 0.4485 | -0.82
413.15 K, x2 = 0.5202 | -0.885
413.15 K, x2 = 0.5823 | -0.92
413.15 K, x2 = 0.6844 | -0.91
413.15 K, x2 = 0.7648 | -0.779
413.15 K, x2 = 0.8299 | -0.596
413.15 K, x2 = 0.907 | -0.332
413.15 K, x2 = 0.967 | -0.131

CCCCCCCCC [nonane]
Conditions | vapor or sublimation pressure [kPa]
[2], 353.15 K | 9.65

C=CCCCCCC [oct-1-ene]
Conditions | vapor or sublimation pressure [kPa]
[2], 363.15 K | 38.51

C=CCCCCCC [oct-1-ene] + CCCCCC[n+]1ccn(C)c1.O=S(=O)([N-]S(=O)(=O)C(F)(F)F)C(F)(F)F
[1], 413.15 K, 101 kPa
Conditions | excess molar enthalpy [kJ/mol]
x1 = 0.0504 | 0.169
x1 = 0.0982 | 0.305
x1 = 0.1437 | 0.427
x1 = 0.1869 | 0.547
x1 = 0.2281 | 0.596
x1 = 0.2675 | 0.588
x1 = 0.3409 | 0.543
x1 = 0.4082 | 0.484
x1 = 0.47 | 0.429
x1 = 0.5797 | 0.341
x1 = 0.6742 | 0.258
x1 = 0.7563 | 0.197
x1 = 0.8613 | 0.114

CCCCCCCC [octane]
Conditions | vapor or sublimation pressure [kPa]
[2], 353.15 K | 23.16

CCC(=O)CC [pentan-3-one] + CCCCCC[n+]1ccn(C)c1.O=S(=O)([N-]S(=O)(=O)C(F)(F)F)C(F)(F)F
[1], 353.15 K, 101 kPa
Conditions | excess molar enthalpy [kJ/mol]
x1 = 0.0503 | -0.103
x1 = 0.1005 | -0.221
x1 = 0.1507 | -0.332
x1 = 0.2009 | -0.448
x1 = 0.3011 | -0.654
x1 = 0.4013 | -0.829
x1 = 0.5013 | -1.01
x1 = 0.6013 | -1.11
x1 = 0.7011 | -1.16
x1 = 0.8009 | -1.04
x1 = 0.9005 | -0.742
x1 = 0.9503 | -0.455
